Laboratory results taken from patent US20030228675A1, “ATM related kinase ATX, nucleic acids encoding same and methods of use” (priority 2002, published 2003).

What was measured:
[1] = test system: U2OS cells; assay: Clonogenic survival assay of oligonucleotide-transfected cells; format: cell-based, human; conditions: non-irradiated, 10 days in culture
Procedure: To address concerns related to potential non-specific effects of ATXKI expression on cellular functions, an antisense oligonucleotide-based approach to reduce the level of ATX expression in U2OS cells was developed. The cells were mock transfected, or transfected with sense (S) or antisense (AS) oligonucleotides, and then treated for 24 h with various genotoxic agents. The cells were then trypsinized and replated, and clonogenic survival was analyzed after 10 days in culture. The results obtained with AS-treated cells were strikingly similar to those obtained with the ATXKI-expressing cells (FIGS. 2A-C). While transfection of U2OS cells with the S oligonucleotide reduced the basal level of colony outgrowth by 25%, treatment with the AS oligonucleotide decreased basal clonogenic activity by 75% (FIG. 2C, right panel). […] The reduction in ATX protein caused by AS treatment ranged from 50-90% in over 10 independent trials.
To prepare recombinant HA-tagged ATX and ATM proteins, HEK 293T cells were plated onto 60-mm dishes (9×10^5 cells per dish), and were transfected with 5 μg pcDNA3.1 (empty vector), HA-ATXWT, HA-ATXKI, or HA-ATMWT plasmid DNAS. Transfections were performed with the Fugene 6 transfection reagent (Roche), according to the manufacturer's instructions. For NMD assays (see Example 9, below), U2OS cells were seeded onto 100 mm dishes (1×10^6 cells per dish). […]
U2OS cells were seeded into 60 mm dishes (1×10^5 cells per dish) in complete medium. […] To quantitate the outgrowth of drug-resistant cells, the Coomassie Blue-bound protein was solubilized at 37° C. with 0.1 M NaOH, and the soluble material was analyzed by absorbance spectroscopy at a wavelength of 590 nm. […] Drug-resistant colonies were stained with Coomassie Blue after 10 days in culture, and the samples were analyzed with Image Pro Plus software to quantitate cell density. […]

[2] = test system: U2OS cells; assay: Cell-cycle distribution by flow cytometry; format: cell-based, human; conditions: 24 h post-irradiation
Procedure: Since p53 plays a central role in activation of the G1 checkpoint, and influences S, G2, and M checkpoints as well (Giaccia and Kastan, Genes & Development 12:2973-2983 (1998); Ko and Prives, supra, 1996), a functional deficiency of ATX might alter the cell-cycle arrest responses to IR and other genotoxic agents. To test this possibility, U2OS cells were pre-treated with S or AS oligonucleotides, exposed to IR, and cell-cycle distributions at 24 h post-irradiation were determined.
The G2 checkpoint inhibitor was added to the culture medium at 8 h prior to harvest for determination of cell-cycle distributions (FIG. 3E, left panel), and immunoblotting for ATX expression (right panel).

[3] = target: T1, ATX (Homo sapiens, UniProt Q96Q15); assay: Immune complex kinase assay, immunoprecipitated HA-ATXWT pretreated with drug, GST-p53 1-70 phosphorylation; format: biochemical; set-up: was used to isolate a full-length cDNA encoding a novel member of the PIKK family, termed ATX; made in house; conditions: pretreatment of immunoprecipitated HA-ATXWT; GST-p53 1-70 substrate; read-out: drug concentration required for 50% inhibition (IC50) of ATX activity in vitro
Procedure: With the exception of the TOR proteins, the PIKK family members that bear functional catalytic domains phosphorylate substrates bearing the Ser/Thr-Gln motif (Tibbetts and Abraham, supra, 2000). […] Detergent extracts from the transfected cell populations were immunoprecipitated with α-HA antibody, and protein kinase assays were performed in buffer containing Mn2+, [γ-32P]ATP, and a GST fusion protein containing the first 70 amino acids of p53 (GST-p531-70) as the substrate (FIG. 1C). The GST-p531-70 protein was previously identified as a substrate for ATM and ATR in immune complex kinase assays (Tibbetts et al., Genes and Development 13:152-157 (1999)). […] Based on the ratios of 32P incorporation into substrate to levels of HA-tagged protein kinase, it can be estimated that the specific kinase activity of ATXWT was approximately 3.5-fold higher than that of ATMWT. As observed with ATM as the test kinase (Banin et al., Science 281:1674-1677 (1998); Canman et al., Science 281:1677-1679 (1998); Tibbetts et al., supra, 1999), phosphorylation of GST-p531-70 by ATXWT was nearly abolished by substitution of the Ser-15 residue in p53 with Ala (FIG. 1C, right panel). […] In contrast to the amino-terminal fragment, of p53, the PHAS-I/4E-BP1 protein, which is the prototypical substrate for mTOR, was poorly phosphorylated by HA-ATXWT in immune complex kinase assays (data not shown). […]

[4] = target: T1, ATX; assay: ATX kinase activity after drug treatment of intact U2OS cells, immunoprecipitation of endogenous ATX; format: cell-based; set-up: immunoprecipitation of endogenous ATX with α-ATX Ab-2; endogenous in cells; host or cells: U2OS osteosarcoma cells; conditions: U2OS cells pretreated for 30 min, endogenous ATX immunoprecipitated with α-ATX Ab-2
Text: The protein kinase activities of the mammalian PIKKs characteristically display a strong dependence on Mn2+ as a cofactor for the phosphotransferase reaction, and variable sensitivity to inhibition by wortmannin (Abraham, Genes and Development 15:2177-2196 (2001)). In our studies, the protein kinase activity of ATX was also dependent on the addition of Mn2+ the kinase reaction buffer (data not shown). […] Wortmannin is an irreversible inhibitor of PIKKs (Walker et al., Molecular Cells 6:909-919 (2000)) and can be used to assess the potency of this drug as an ATX inhibitor in intact cells. To this end, U2OS osteosarcoma cells were pretreated for 30 min with the indicated concentrations of wortmannin, followed by the preparation of cellular extracts for immunoprecipitation of endogenous ATX with α-ATX Ab-2. […]
For subcellular fractionations, U2OS cells were resuspended in cold homogenization buffer (25 mM Hepes, pH 7.4, 250 mM sucrose, 1 mM EGTA, 5 mM MgCl2, 50 mM NaF, 1 mM DTT, plus protease inhibitors) and Dounce homogenized on ice with 40 strokes in a Tefloncoated homogenizer. […] After separation by SDS-PAGE, the proteins were detected by autoradiography (for kinase reaction products) or by immunoblotting. Proteins immunoblotted with rabbit and mouse antibodies were detected with protein A-horseradish peroxidase (HRP) (Amersham), and sheep anti-mouse IgG-HRP (Amersham), respectively. […]
Target sequence in this assay (Q96Q15 whole entry, the tested form may be a part): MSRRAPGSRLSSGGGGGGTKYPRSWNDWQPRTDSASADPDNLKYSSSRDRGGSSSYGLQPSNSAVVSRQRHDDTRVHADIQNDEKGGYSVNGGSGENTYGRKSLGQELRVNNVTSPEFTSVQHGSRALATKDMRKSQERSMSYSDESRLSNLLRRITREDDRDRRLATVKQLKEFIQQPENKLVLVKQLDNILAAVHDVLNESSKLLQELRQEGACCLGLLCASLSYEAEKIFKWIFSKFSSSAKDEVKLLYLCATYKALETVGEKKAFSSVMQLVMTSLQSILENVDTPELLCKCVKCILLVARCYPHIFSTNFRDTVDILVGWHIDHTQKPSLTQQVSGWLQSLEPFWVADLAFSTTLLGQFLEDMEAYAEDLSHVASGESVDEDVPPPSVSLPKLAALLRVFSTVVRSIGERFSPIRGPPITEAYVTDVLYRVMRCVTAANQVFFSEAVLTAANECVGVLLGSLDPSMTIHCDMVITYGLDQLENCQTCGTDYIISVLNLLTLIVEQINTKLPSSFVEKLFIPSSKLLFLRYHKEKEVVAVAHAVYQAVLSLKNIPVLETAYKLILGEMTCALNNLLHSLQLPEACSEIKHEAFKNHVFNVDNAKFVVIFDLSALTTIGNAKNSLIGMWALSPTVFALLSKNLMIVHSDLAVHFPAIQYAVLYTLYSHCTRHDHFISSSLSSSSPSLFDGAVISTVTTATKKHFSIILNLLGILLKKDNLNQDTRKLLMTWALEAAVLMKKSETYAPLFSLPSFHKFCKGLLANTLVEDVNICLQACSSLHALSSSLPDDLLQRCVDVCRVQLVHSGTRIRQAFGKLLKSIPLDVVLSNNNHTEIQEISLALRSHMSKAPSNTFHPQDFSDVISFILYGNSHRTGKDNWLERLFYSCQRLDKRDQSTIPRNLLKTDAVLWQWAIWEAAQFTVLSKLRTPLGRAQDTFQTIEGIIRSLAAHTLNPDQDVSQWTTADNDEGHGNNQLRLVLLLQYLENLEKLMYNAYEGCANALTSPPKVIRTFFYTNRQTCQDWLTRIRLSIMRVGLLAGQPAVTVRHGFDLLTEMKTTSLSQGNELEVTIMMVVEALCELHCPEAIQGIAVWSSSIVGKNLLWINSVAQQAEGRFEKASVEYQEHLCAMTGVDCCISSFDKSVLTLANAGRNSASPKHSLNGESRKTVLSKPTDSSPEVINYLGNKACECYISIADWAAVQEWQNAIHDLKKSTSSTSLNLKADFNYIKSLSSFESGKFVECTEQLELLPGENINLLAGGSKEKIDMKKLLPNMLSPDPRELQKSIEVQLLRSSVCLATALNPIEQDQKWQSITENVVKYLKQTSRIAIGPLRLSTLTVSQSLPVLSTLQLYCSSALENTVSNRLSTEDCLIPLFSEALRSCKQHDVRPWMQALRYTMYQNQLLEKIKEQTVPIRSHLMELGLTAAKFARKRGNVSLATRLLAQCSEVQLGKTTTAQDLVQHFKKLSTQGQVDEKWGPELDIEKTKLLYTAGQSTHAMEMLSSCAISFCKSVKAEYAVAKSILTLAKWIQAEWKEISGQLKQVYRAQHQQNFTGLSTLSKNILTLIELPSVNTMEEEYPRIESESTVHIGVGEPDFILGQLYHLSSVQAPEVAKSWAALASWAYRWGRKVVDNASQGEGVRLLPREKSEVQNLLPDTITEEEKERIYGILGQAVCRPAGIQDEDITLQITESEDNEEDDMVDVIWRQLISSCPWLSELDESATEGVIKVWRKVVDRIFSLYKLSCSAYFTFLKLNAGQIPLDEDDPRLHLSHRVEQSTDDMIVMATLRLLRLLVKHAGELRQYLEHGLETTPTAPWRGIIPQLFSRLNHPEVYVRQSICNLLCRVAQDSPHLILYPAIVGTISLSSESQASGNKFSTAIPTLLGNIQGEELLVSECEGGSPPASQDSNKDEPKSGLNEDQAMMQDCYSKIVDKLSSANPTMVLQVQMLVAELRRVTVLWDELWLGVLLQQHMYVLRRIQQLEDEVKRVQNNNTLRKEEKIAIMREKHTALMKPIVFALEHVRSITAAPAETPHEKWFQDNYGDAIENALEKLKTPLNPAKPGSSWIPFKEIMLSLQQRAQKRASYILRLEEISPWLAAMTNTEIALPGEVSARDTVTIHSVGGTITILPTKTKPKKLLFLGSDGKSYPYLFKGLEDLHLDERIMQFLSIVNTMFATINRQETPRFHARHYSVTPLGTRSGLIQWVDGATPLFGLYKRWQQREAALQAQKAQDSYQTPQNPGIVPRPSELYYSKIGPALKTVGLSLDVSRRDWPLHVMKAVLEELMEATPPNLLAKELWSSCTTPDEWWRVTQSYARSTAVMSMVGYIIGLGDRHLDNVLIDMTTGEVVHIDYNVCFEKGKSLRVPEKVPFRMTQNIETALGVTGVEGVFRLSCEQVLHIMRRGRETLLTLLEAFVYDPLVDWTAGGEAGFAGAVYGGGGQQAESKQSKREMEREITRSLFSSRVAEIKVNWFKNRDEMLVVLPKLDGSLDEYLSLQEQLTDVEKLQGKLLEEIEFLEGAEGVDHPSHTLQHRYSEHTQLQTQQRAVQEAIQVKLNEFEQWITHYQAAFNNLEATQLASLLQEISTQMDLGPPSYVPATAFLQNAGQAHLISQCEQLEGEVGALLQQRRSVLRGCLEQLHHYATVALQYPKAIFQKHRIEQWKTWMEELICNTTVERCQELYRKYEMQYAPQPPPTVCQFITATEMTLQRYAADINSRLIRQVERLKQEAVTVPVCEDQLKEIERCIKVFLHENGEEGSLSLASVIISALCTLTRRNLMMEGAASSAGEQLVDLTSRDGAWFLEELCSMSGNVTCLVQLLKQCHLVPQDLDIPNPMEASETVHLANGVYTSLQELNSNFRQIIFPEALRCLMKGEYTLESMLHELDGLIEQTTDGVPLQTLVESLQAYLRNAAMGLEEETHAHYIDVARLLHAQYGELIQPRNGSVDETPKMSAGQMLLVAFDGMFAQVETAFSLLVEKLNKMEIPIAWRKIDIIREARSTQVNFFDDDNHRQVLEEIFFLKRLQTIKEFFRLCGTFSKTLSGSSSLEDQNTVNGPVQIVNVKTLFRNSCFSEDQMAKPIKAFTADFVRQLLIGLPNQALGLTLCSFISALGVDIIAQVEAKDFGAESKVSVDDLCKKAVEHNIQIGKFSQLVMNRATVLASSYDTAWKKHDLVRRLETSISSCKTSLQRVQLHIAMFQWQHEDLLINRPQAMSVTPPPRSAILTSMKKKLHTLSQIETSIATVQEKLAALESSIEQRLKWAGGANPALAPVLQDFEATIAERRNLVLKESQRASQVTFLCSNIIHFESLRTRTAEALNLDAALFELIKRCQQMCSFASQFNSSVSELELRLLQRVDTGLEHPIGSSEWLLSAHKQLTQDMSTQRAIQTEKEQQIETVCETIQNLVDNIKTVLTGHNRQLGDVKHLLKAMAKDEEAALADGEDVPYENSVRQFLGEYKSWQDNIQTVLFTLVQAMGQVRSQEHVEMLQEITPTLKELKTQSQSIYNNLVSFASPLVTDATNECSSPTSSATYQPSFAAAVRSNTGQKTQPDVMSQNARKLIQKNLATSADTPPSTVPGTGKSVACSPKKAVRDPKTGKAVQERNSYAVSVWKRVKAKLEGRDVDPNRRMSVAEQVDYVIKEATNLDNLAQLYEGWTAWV

[5] = test system: p53; assay: Stress-induced p53 Ser-15 phosphorylation and p53 accumulation by immunoblotting; format: cell-based, human; conditions: U2OS treated with the drug
Procedure: To prepare recombinant HA-tagged ATX and ATM proteins, HEK 293T cells were plated onto 60-mm dishes (9×10^5 cells per dish), and were transfected with 5 μg pcDNA3.1 (empty vector), HA-ATXWT, HA-ATXKI, or HA-ATMWT plasmid DNAS. Transfections were performed with the Fugene 6 transfection reagent (Roche), according to the manufacturer's instructions. For NMD assays (see Example 9, below), U2OS cells were seeded onto 100 mm dishes (1×10^6 cells per dish). After 20 h, cells were transfected with 1.5 μg of pmCMV-Gl test plasmid, either Norm or 39Ter (Ishigaki et al., 2001); 1.5 μg of phCMV-MUP reference plasmid (Ishigaki et al., Cell 106:607-617 (2001)); and 7 μg of empty plasmid (pcDNA 3.1), plasmids encoding HA-ATMWT, HA-ATMKI, HA-ATXWT or HA-ATXKI. For antisense transfection experiments, U2OS cells were seeded onto 60 mm dishes (1×10^5 cells per dish) in complete medium supplemented with penicillin/streptomycin. After 30 h, cells were either mock transfected or transfected with sense (S) or antisense (AS) phosphorothioate oligonucleotides (Genset Oligos, La Jolla, Calif.). The S oligonucleotide spans ATX nucleotides 210-229 (5′-[…]-3′), and the AS oligonucleotide is complementary to this sequence (5′-[…]-3′). The cells were transfected with oligonucleotides at final concentrations of 8 μg/ml, with Fugene 6:DNA ratio of 1.6:1. Forty-eight hours after transfection, dishes were exposed to IR, UV-B, or 5-FU, and then harvested for immunoblotting, cell-cycle distribution, or cell survival assays. To examine ATX protein levels in oligonucleotide-treated cells, whole cell extracts were resolved by SDS-PAGE and immunoblotted with α-ATX Ab-1. When oligonucleotide-transfected cells were used for NMD assays, U2OS cells were seeded in culture dishes as described above. The cells were transfected using the Fugene reagent, with 1.5 μg of pmCMV-Gl test plasmid, 0.7 μg of phCMV-MUP reference plasmid, and 24 μg of S or AS oligonucleotide.
A major mediator of stress-induced signaling in mammalian cells is the tumor suppressor protein, p53 (Ko and Prives, Genes and Development 10:1054-1072, (1996); Ryan et al., Curr. Opin. Cell Biol. 13:332-337 (2001)). ATX phosphorylates p53 on Ser-15 (FIG. 1C), a site implicated in the regulation of p53 stability and transcriptional activity (Dumaz and Meek, Curr. Opin. Cell Biol. 13:225-231 (1999); Zhang and Xiong, Science 292:1910-1915 (2001)). Therefore, the possibility that these two proteins are functionally linked during cellular stress responses was investigated. U2OS cells were transiently transfected with a HA-ATXWT or HA-ATXKI expression plasmid, together with a GFP-encoding plasmid to allow for FACS-based enrichment of the transfected cells. The GFP+ cells were then examined for IR-induced stabilization of p53, as well as for specific phosphorylation of this protein on Ser-15. […] In contrast, overexpression of ATXWT enhanced both of these responses in cells exposed to IR.
The recognition of UV light-induced DNA damage occurs primarily during S phase, when pyrimidine dimers and other bulky lesions interfere with replication fork progression (Friedberg, DNA Repair and Mutagenesis (Washington, D.C., ASM Press) (1995); Lindahl and Wood, Cell 103:1121-1131 (1999)).
In order to further define the potential linkage between DNA replicational stress and ATX, the response of AS-treated cells to 5-fluorouracil (5-FU), an S-phase specific cytotoxic agent was examined (Danenberg et al., Seminars in Oncology 26:621-631 (1999); Grem, Investigational New Drugs 18:299-313 (2000)).
Changes in phosphorylation at Ser-15 are typically accompanied by alterations in the expression of the p53 protein, which complicates the interpretation of results obtained by immunoblotting of whole cell extracts with phospho-Ser-15-specific antibodies. […]

## 5′-GAGACAGGAGGGAGCTTGCT-3′ (all phosphorothioate, sugars by position and methylation of C not given here) [S oligonucleotide, reference compound]
[1]
  decrease of basal level of colony outgrowth (basal clonogenic activity): 25%
[2]
  cell-cycle distribution after IR exposure: accumulated in both G1 and G2/M phases and were cleared out of S phase

## COC[C@H]1OC(=O)c2coc3c2[C@@]1(C)C1=C(C3=O)[C@@H]2CCC(=O)[C@@]2(C)C[C@H]1OC(C)=O [wortmannin]
[3]
  IC50: 10 to 100 nM
[4]
  IC50: 1000 to 3000 nM

## O=c1[nH]cc(F)c(=O)[nH]1 [5-FU, 5-fluorouracil, reference compound]
[5]
  Ser-15 phosphorylation of p53: not accompanied by an increase in Ser-15 phosphorylation
  p53 expression: increased p53 expression to levels similar to those observed in UV-irradiated cells
